Test results as given in PMC6651454, “An Established HPLC-MS/MS Method for Evaluation of the Influence of Salt Processing on Pharmacokinetics of Six Compounds in Cuscutae Semen” (Molecules, 2019).

Assay: Pharmacokinetics in rat plasma after oral administration of SF-CS and SP-CS extracts (HPLC-MS/MS)
Assay type: in vivo, Male Sprague-Dawley rats
Conditions: after oral administration of the two processed products of CS; LLOQ 2 ng·mL^−1
Procedure: All components were measured on an Agilent 1200 HPLC system (Agilent Corporation, Santa Clara, CA, USA) and API 3200 triple quadrupole mass spectrometer (Concord, ON, Canada) in negative ion mode. Acetonitrile (A) and 0.1% formic acid-water (B) were used to separate the analytes on an Agilent Eclipse plus C18 column (4.6 mm × 100 mm, 1.8 μm) with a flow rate of 0.5 mL·min^−1. […] The equilibration time (10 min) of the sequence was added before the next injection. The column temperature was 30 °C. The optimized main parameters, namely curtain gas, collision gas, ion Spray voltage, and temperature, were set at 30 psi, 8 psi, −4000 V, and 600 °C, respectively.
The plasma sample (100 μL), IS (10 μL) and formic acid (10 μL) were mixed and vortexed for 1 min. Then, 1 mL of ethyl acetate was spiked into the mixed solution and centrifuged for 10 min at 14,000 rpm. The supernatant was transferred and evaporated with nitrogen gas. These residues were re-dissolved with 100 μL methanol. The final solutions were vortexed for 2 min and centrifuged for 10 min. The supernatant was injected into the HPLC-MS/MS and analyzed.
The pharmacokinetic study was conducted in accordance with the Guidelines for the Care and Use of Laboratory Animals by USA National Institutes of Health and approved by the Animal Ethics Committee of Tianjin University of Traditional Chinese Medicine (the permit number: TCM-LAEC2019023, Tianjin, China). Male Sprague-Dawley rats (200–240 g) were fed in the animal laboratory of Tianjin University of Traditional Chinese Medicine under the standard conditions. These rats were fed and given water for 1 week before experimentation. […] In order to investigate the influence of processing on the metabolic process of active ingredients in vivo, the same amount of raw CS was processed and administrated. Depending on the clinical dosage that was applied to the human body, the dosage of SF-CS extracts was 1.9 g kg^−1 (an equivalent dosage of 12.75 g kg^−1 raw CS) for oral administration, while extraction of SP-CS was 2.2 g kg^−1 (an equivalent dosage of 12.50 g kg^−1 raw CS). In order to investigate the influence of salt on the metabolic process of active ingredients in vivo, the dosage of SF-CS extracts was 1.9 g kg^−1 (an equivalent dosage of 12.75 g kg^−1 raw CS) and SF-CS extracts with salt ( 0.26 g kg^−1 ) were used to perform the pharmacokinetic study. […] The collected plasma was centrifuged for 10 min at 6000 rpm and stored at −20 °C before analysis.
All of the pharmacokinetic parameters were estimated with the DAS1.0 system (Medical College of Wannan, China). The maximum concentration of oral administration of CS (Cmax) and the time to reach Cmax (Tmax) were achieved from the concentration–time profile. All values were shown as mean ± standard deviation. Independent t-test was used to compare the pharmacokinetic parameters of the two processed CS.

Row | Detection in rat plasma | Compound
1 | could not be tested | O=c1c(O[C@@H]2O[C@H](CO)[C@@H](O)[C@H](O)[C@H]2O)c(-c2ccc(O)c(O)c2)oc2cc(O)cc(O)c12 [Isoquercitrin, isoquercitrin]

Same assay, conditions: male, Sprague-Dawley; rat plasma, oral SF-CS extract (A) 1.9 g kg^-1, n = 10

Row | Tmax [h] | Compound
2 | 0.99 | O=c1c(O[C@@H]2O[C@H](CO)[C@@H](O)[C@H](O)[C@H]2O)c(-c2ccc(O)cc2)oc2cc(O)cc(O)c12 [Astragalin, astragalin]
3 | 3.84 | O=C(/C=C/c1ccc(O)c(O)c1)O[C@@H]1C[C@](O)(C(=O)O)C[C@@H](O)[C@H]1O [Chlorogenic acid, chlorogenic acid]

Same assay, conditions: male, Sprague-Dawley; rat plasma, oral SF-CS extract (A) 1.9 g kg^-1, n = 10, mean ± SD

Row | AUC(0-inf) [ng·h/mL] | Cmax [ng/mL] | Compound
4 | 11.2 ± 10.8 | 0.65 ± 0.39 | O=c1c(O[C@@H]2O[C@H](CO)[C@@H](O)[C@H](O)[C@H]2O)c(-c2ccc(O)cc2)oc2cc(O)cc(O)c12 [Astragalin, astragalin]
5 | 1670 ± 931 | 257 ± 53 | O=C(/C=C/c1ccc(O)c(O)c1)O[C@@H]1C[C@](O)(C(=O)O)C[C@@H](O)[C@H]1O [Chlorogenic acid, chlorogenic acid]

Same assay, conditions: male, Sprague-Dawley; rat plasma, oral SF-CS extract (A) 1.9 g kg^-1, n = 10, mean ± SD; read-out: AUC0–24h

Row | AUC(0-t) [ng·h/mL] | Compound
6 | 1.27 ± 0.76 | O=c1c(O[C@@H]2O[C@H](CO)[C@@H](O)[C@H](O)[C@H]2O)c(-c2ccc(O)cc2)oc2cc(O)cc(O)c12 [Astragalin, astragalin]
7 | 1660 ± 931 | O=C(/C=C/c1ccc(O)c(O)c1)O[C@@H]1C[C@](O)(C(=O)O)C[C@@H](O)[C@H]1O [Chlorogenic acid, chlorogenic acid]

Same assay, conditions: male, Sprague-Dawley; rat plasma, oral SF-CS extract (A) 1.9 g kg^-1, n = 10, mean ± SD; read-out: MRT0–24h

Row | MRT last [h] | Compound
8 | 2.3 ± 0.98 | O=c1c(O[C@@H]2O[C@H](CO)[C@@H](O)[C@H](O)[C@H]2O)c(-c2ccc(O)cc2)oc2cc(O)cc(O)c12 [Astragalin, astragalin]
9 | 4.81 ± 0.35 | O=C(/C=C/c1ccc(O)c(O)c1)O[C@@H]1C[C@](O)(C(=O)O)C[C@@H](O)[C@H]1O [Chlorogenic acid, chlorogenic acid]

Same assay, conditions: male, Sprague-Dawley; rat plasma, oral SP-CS extract (B) 2.2 g kg^-1, n = 10

Row | Tmax [h] | Compound
10 | 0.17 | O=c1c(O[C@@H]2O[C@H](CO)[C@@H](O)[C@H](O)[C@H]2O)c(-c2ccc(O)cc2)oc2cc(O)cc(O)c12 [Astragalin, astragalin]
11 | 0.28 | O=C(/C=C/c1ccc(O)c(O)c1)O[C@@H]1C[C@](O)(C(=O)O)C[C@@H](O)[C@H]1O [Chlorogenic acid, chlorogenic acid]

Same assay, conditions: male, Sprague-Dawley; rat plasma, oral SP-CS extract (B) 2.2 g kg^-1, n = 10, mean ± SD

Row | AUC(0-inf) [ng·h/mL] | Cmax [ng/mL] | Compound
12 | 2.33 ± 0.72 | 1.43 ± 0.21 | O=c1c(O[C@@H]2O[C@H](CO)[C@@H](O)[C@H](O)[C@H]2O)c(-c2ccc(O)cc2)oc2cc(O)cc(O)c12 [Astragalin, astragalin]
13 | 438 ± 289 | 175 ± 168 | O=C(/C=C/c1ccc(O)c(O)c1)O[C@@H]1C[C@](O)(C(=O)O)C[C@@H](O)[C@H]1O [Chlorogenic acid, chlorogenic acid]

Same assay, conditions: male, Sprague-Dawley; rat plasma, oral SP-CS extract (B) 2.2 g kg^-1, n = 10, mean ± SD; read-out: AUC0–24h

Row | AUC(0-t) [ng·h/mL] | Compound
14 | 1.31 ± 0.27 | O=c1c(O[C@@H]2O[C@H](CO)[C@@H](O)[C@H](O)[C@H]2O)c(-c2ccc(O)cc2)oc2cc(O)cc(O)c12 [Astragalin, astragalin]
15 | 417 ± 281 | O=C(/C=C/c1ccc(O)c(O)c1)O[C@@H]1C[C@](O)(C(=O)O)C[C@@H](O)[C@H]1O [Chlorogenic acid, chlorogenic acid]

Same assay, conditions: male, Sprague-Dawley; rat plasma, oral SP-CS extract (B) 2.2 g kg^-1, n = 10, mean ± SD; read-out: MRT0–24h

Row | MRT last [h] | Compound
16 | 2.13 ± 0.2 | O=c1c(O[C@@H]2O[C@H](CO)[C@@H](O)[C@H](O)[C@H]2O)c(-c2ccc(O)cc2)oc2cc(O)cc(O)c12 [Astragalin, astragalin]
17 | 5.06 ± 1.1 | O=C(/C=C/c1ccc(O)c(O)c1)O[C@@H]1C[C@](O)(C(=O)O)C[C@@H](O)[C@H]1O [Chlorogenic acid, chlorogenic acid]

Same assay, conditions: rat plasma, oral SF-CS and SP-CS extracts

Row | Shape of plasma concentration-time profile | Compound
18 | double-peak phenomenon | O=C(/C=C/c1ccc(O)c(O)c1)O[C@@H]1C[C@](O)(C(=O)O)C[C@@H](O)[C@H]1O [Chlorogenic acid, chlorogenic acid]

Same assay, conditions: rat plasma, oral SF-CS extract

Row | AUC(0–24h) [ng·h/mL] | Compound
19 | 1.27 ± 0.76 | O=c1c(O[C@@H]2O[C@H](CO)[C@@H](O)[C@H](O)[C@H]2O)c(-c2ccc(O)cc2)oc2cc(O)cc(O)c12 [Astragalin, astragalin]

Same assay, conditions: rat plasma, oral SF-CS extract (A) 1.9 g kg^-1, n = 10, mean ± SD

Row | T1/2ka [h] | T1/2α [h] | Compound
20 | 2.27 ± 5.13 | 24.6 ± 33.2 | O=c1c(O[C@@H]2O[C@H](CO)[C@@H](O)[C@H](O)[C@H]2O)c(-c2ccc(O)cc2)oc2cc(O)cc(O)c12 [Astragalin, astragalin]
21 | 0.63 ± 0.87 | 6.53 ± 5.20 | O=C(/C=C/c1ccc(O)c(O)c1)O[C@@H]1C[C@](O)(C(=O)O)C[C@@H](O)[C@H]1O [Chlorogenic acid, chlorogenic acid]

Same assay, conditions: rat plasma, oral SP-CS extract

Row | AUC(0–24h) [ng·h/mL] | Compound
22 | 1.31 ± 0.27 | O=c1c(O[C@@H]2O[C@H](CO)[C@@H](O)[C@H](O)[C@H]2O)c(-c2ccc(O)cc2)oc2cc(O)cc(O)c12 [Astragalin, astragalin]

Same assay, conditions: rat plasma, oral SP-CS extract (B) 2.2 g kg^-1, n = 10, mean ± SD

Row | T1/2ka [h] | T1/2α [h] | Compound
23 | 0.04 ± 0.00 | 0.10 ± 0.04 | O=c1c(O[C@@H]2O[C@H](CO)[C@@H](O)[C@H](O)[C@H]2O)c(-c2ccc(O)cc2)oc2cc(O)cc(O)c12 [Astragalin, astragalin]
24 | 0.02 ± 0.01 | 0.84 ± 0.42 | O=C(/C=C/c1ccc(O)c(O)c1)O[C@@H]1C[C@](O)(C(=O)O)C[C@@H](O)[C@H]1O [Chlorogenic acid, chlorogenic acid]
